Measurements: EP0726261A1, “Herbidical 1,2,4 thiadiazoles” (American Cyanamid Company, priority 1995, dated 1996)

Legend:
Format in all cases: in vivo
[1] = test system: Alopecurus myosuroides; assay: Preemergence herbicidal activity (Example 67); parameters: herbicide rating, ALOMY: scale not given here; conditions: pre, 800 g/ha; for herbicide rating, ALOMY: rated about 1-3 weeks after treatment
Protocol: (§1) Herbicidal evaluation of compounds of the invention is conducted on the following plant species:
(§2) The soil is a prepared horticultural substrate containing 30% peat, 20% volcanic clay, 30% bark residues and 20% polyamide/styromull in a 1:3 mixture with loamy sand. Test solutions are prepared by dissolving the test compound in acetone containing 0.5% of an alkylphenol/ethylene oxide condensate under the trademark, TRITON® X-155, and diluting with water as needed. The test solutions are applied as a spray to the 3-6 week old seedling plants at dose rates corresponding to 800g/ha in a volume equivalent to 400 L/ha. A pneumatic spraying device employing a Teejet nozzle SS 8002E operating at 3 bar is used for a predetermined time. After spraying, the treated plants are placed on greenhouse benches and cared for in a manner commensurate with conventional greenhouse practice. After 10-21 days, the treated plants are evaluated and rated according to the rating system provided below.
(§3) The soil surface is then sprayed with test solutions as described in the postemergence evaluation hereinabove. After spraying, the treated cups are placed on greenhouse benches and cared for in the manner commensurate with conventional greenhouse practice. About 1-3 weeks after treatment the cups are evaluated and rated according to the rating system provided hereinabove.

[2] = test system: Veronica persica; assay: Preemergence herbicidal activity (Example 67); conditions: pre, 800 g/ha; for herbicide rating, VERPE: rated about 1-3 weeks after treatment
Protocol: as §1, §2, §3

[3] = test system: Chenopodium album; assay: Preemergence herbicidal activity (Example 67); conditions: pre, 800 g/ha; for herbicide rating, CHEAL: rated about 1-3 weeks after treatment
Protocol: as §1, §2, §3

[4] = test system: Zea mays; assay: Preemergence herbicidal activity (Example 67); conditions: pre, 800 g/ha; for herbicide rating, ZEAMX: rated about 1-3 weeks after treatment
Protocol: as §1, §2, §3

[5] = test system: Abutilon theophrasti; assay: Preemergence herbicidal activity (Example 67); conditions: pre, 800 g/ha; for herbicide rating, ABUTH: rated about 1-3 weeks after treatment
Protocol: as §1, §2, §3

[6] = test system: Ipomoea hederacea; assay: Preemergence herbicidal activity (Example 67); conditions: pre, 800 g/ha; for herbicide rating, IPOHE: rated about 1-3 weeks after treatment
Protocol: as §1, §2, §3

[7] = test system: Helianthus annuus; assay: Preemergence herbicidal activity (Example 67); conditions: pre, 800 g/ha; for herbicide rating, HELAN: rated about 1-3 weeks after treatment
Protocol: as §1, §2, §3

[8] = test system: Amaranthus retroflexus; assay: Preemergence herbicidal activity (Example 67); conditions: pre, 800 g/ha; for herbicide rating, AMARE: rated about 1-3 weeks after treatment
Protocol: as §1, §2, §3

[9] = test system: Galium aparine; assay: Preemergence herbicidal activity (Example 67); conditions: pre, 800 g/ha; for herbicide rating, GALAP: rated about 1-3 weeks after treatment
Protocol: as §1, §2, §3

[10] = test system: Setaria viridis; assay: Preemergence herbicidal activity (Example 67); parameters: herbicide rating, SETVI: scale not given here; conditions: pre, 800 g/ha; for herbicide rating, SETVI: rated about 1-3 weeks after treatment
Protocol: as §1, §2, §3

[11] = test system: Triticum aestivum; assay: Preemergence herbicidal activity (Example 67); parameters: herbicide rating, TRZAW: scale not given here; conditions: pre, 800 g/ha; for herbicide rating, TRZAW: rated about 1-3 weeks after treatment
Protocol: as §1, §2, §3

[12] = test system: Hordeum vulgare; assay: Preemergence herbicidal activity (Example 67); parameters: herbicide rating, HORVW: scale not given here; conditions: pre, 800 g/ha; for herbicide rating, HORVW: rated about 1-3 weeks after treatment
Protocol: as §1, §2, §3

[13] = test system: Veronica persica; assay: Postemergence herbicidal activity (Example 67); conditions: pos, 800 g/ha; for herbicide rating, VERPE: rated after 10-21 days
Protocol: as §1, §2

[14] = test system: Chenopodium album; assay: Postemergence herbicidal activity (Example 67); conditions: pos, 800 g/ha; for herbicide rating, CHEAL: rated after 10-21 days
Protocol: as §1, §2

[15] = test system: Zea mays; assay: Postemergence herbicidal activity (Example 67); conditions: pos, 800 g/ha; for herbicide rating, ZEAMX: rated after 10-21 days
Protocol: as §1, §2

[16] = test system: Triticum aestivum; assay: Postemergence herbicidal activity (Example 67); conditions: pos, 800 g/ha; for herbicide rating, TRZAW: rated after 10-21 days
Protocol: as §1, §2

[17] = test system: Hordeum vulgare; assay: Postemergence herbicidal activity (Example 67); conditions: pos, 800 g/ha; for herbicide rating, HORVW: rated after 10-21 days
Protocol: as §1, §2

[18] = test system: Alopecurus myosuroides; assay: Postemergence herbicidal activity (Example 67); conditions: pos, 800 g/ha; for herbicide rating, ALOMY: rated after 10-21 days
Protocol: as §1, §2

[19] = test system: Setaria viridis; assay: Postemergence herbicidal activity (Example 67); conditions: pos, 800 g/ha; for herbicide rating, SETVI: rated after 10-21 days
Protocol: as §1, §2

[20] = test system: Abutilon theophrasti; assay: Postemergence herbicidal activity (Example 67); conditions: pos, 800 g/ha; for herbicide rating, ABUTH: rated after 10-21 days
Protocol: as §1, §2

[21] = test system: Ipomoea hederacea; assay: Postemergence herbicidal activity (Example 67); conditions: pos, 800 g/ha; for herbicide rating, IPOHE: rated after 10-21 days
Protocol: as §1, §2

[22] = test system: Helianthus annuus; assay: Postemergence herbicidal activity (Example 67); conditions: pos, 800 g/ha; for herbicide rating, HELAN: rated after 10-21 days
Protocol: as §1, §2

[23] = test system: Amaranthus retroflexus; assay: Postemergence herbicidal activity (Example 67); conditions: pos, 800 g/ha; for herbicide rating, AMARE: rated after 10-21 days
Protocol: as §1, §2

[24] = test system: Galium aparine; assay: Postemergence herbicidal activity (Example 67); conditions: pos, 800 g/ha; for herbicide rating, GALAP: rated after 10-21 days
Protocol: as §1, §2

SMILES: COc1ccc(-c2nsc(C(=O)N[C@@H](C)c3ccccc3)n2)cc1 [Example 2, (S)-3-(4-Methoxyphenyl)-[1,2,4]thiadiazole-5-carboxylic acid (1-phenylethyl)amide]
- herbicide rating, ALOMY [1]: 0
- herbicide rating, VERPE [2]: 0
- herbicide rating, CHEAL [3]: 0
- herbicide rating, ZEAMX [4]: 0
- herbicide rating, ABUTH [5]: 0
- herbicide rating, IPOHE [6]: 5 (45-64%)
- herbicide rating, HELAN [7]: 0
- herbicide rating, AMARE [8]: 0
- herbicide rating, GALAP [9]: 0
- herbicide rating, SETVI [10]: 0
- herbicide rating, TRZAW [11]: 0
- herbicide rating, HORVW [12]: 0
- herbicide rating, VERPE [13]: 0
- herbicide rating, CHEAL [14]: 3 (16-29%)
- herbicide rating, ZEAMX [15]: 1 (1-5%)
- herbicide rating, TRZAW [16]: 2 (6-15%)
- herbicide rating, HORVW [17]: 2 (6-15%)
- herbicide rating, ALOMY [18]: 2 (6-15%)
- herbicide rating, SETVI [19]: 5 (45-64%)
- herbicide rating, ABUTH [20]: 1 (1-5%)
- herbicide rating, IPOHE [21]: 2 (6-15%)
- herbicide rating, HELAN [22]: 1 (1-5%)
- herbicide rating, AMARE [23]: 0
- herbicide rating, GALAP [24]: 0

SMILES: COc1ccc(-c2nsc(C(=O)NC(C)c3cccs3)n2)cc1 (racemic) [Example 35]
- herbicide rating, ALOMY [1]: 0
- herbicide rating, VERPE [2]: 4 (30-44%)
- herbicide rating, CHEAL [3]: 5 (45-64%)
- herbicide rating, ZEAMX [4]: 0
- herbicide rating, ABUTH [5]: 0
- herbicide rating, IPOHE [6]: 0
- herbicide rating, HELAN [7]: 3 (16-29%)
- herbicide rating, AMARE [8]: 0
- herbicide rating, GALAP [9]: 4 (30-44%)
- herbicide rating, SETVI [10]: 0
- herbicide rating, TRZAW [11]: 0
- herbicide rating, HORVW [12]: 0
- herbicide rating, VERPE [13]: 2 (6-15%)
- herbicide rating, CHEAL [14]: 5 (45-64%)
- herbicide rating, ZEAMX [15]: 3 (16-29%)
- herbicide rating, TRZAW [16]: 3 (16-29%)
- herbicide rating, HORVW [17]: 3 (16-29%)
- herbicide rating, ALOMY [18]: 3 (16-29%)
- herbicide rating, SETVI [19]: 8 (91-99%)
- herbicide rating, ABUTH [20]: 4 (30-44%)
- herbicide rating, IPOHE [21]: 4 (30-44%)
- herbicide rating, HELAN [22]: 5 (45-64%)
- herbicide rating, AMARE [23]: 3 (16-29%)
- herbicide rating, GALAP [24]: 4 (30-44%)

SMILES: CCCCc1nsc(C(=O)NC(C)c2cccs2)n1 (racemic) [Example 25]
- herbicide rating, ALOMY [1]: 0
- herbicide rating, VERPE [2]: 4 (30-44%)
- herbicide rating, CHEAL [3]: 6 (65-79%)
- herbicide rating, ZEAMX [4]: 0
- herbicide rating, ABUTH [5]: 0
- herbicide rating, IPOHE [6]: 0
- herbicide rating, HELAN [7]: 0
- herbicide rating, AMARE [8]: 0
- herbicide rating, GALAP [9]: 0
- herbicide rating, SETVI [10]: 0
- herbicide rating, TRZAW [11]: 0
- herbicide rating, HORVW [12]: 0
- herbicide rating, VERPE [13]: 3 (16-29%)
- herbicide rating, CHEAL [14]: 6 (65-79%)
- herbicide rating, ZEAMX [15]: 0
- herbicide rating, TRZAW [16]: 2 (6-15%)
- herbicide rating, HORVW [17]: 3 (16-29%)
- herbicide rating, ALOMY [18]: 4 (30-44%)
- herbicide rating, SETVI [19]: 8 (91-99%)
- herbicide rating, ABUTH [20]: 6 (65-79%)
- herbicide rating, IPOHE [21]: 5 (45-64%)
- herbicide rating, HELAN [22]: 7 (80-90%)
- herbicide rating, AMARE [23]: 3 (16-29%)
- herbicide rating, GALAP [24]: 6 (65-79%)

SMILES: CC(NC(=O)c1nsc(-c2ccccc2F)n1)c1cccs1 (racemic) [Example 57, (R/S)-5-(2-Fluorophenyl)-[1,2,4]thiadiazole-3-carboxylic acid, [1-(2-thienyl)ethyl]amide]
- ALO MY rating [1]: 3 (16-29%)
- VER PE rating [2]: 0
- CHE AL rating [3]: 1 (1-5%)
- ZEA MX rating [4]: 0
- ABU TH rating [5]: 0
- IPO HE rating [6]: 0
- HEL AN rating [7]: 0
- AMA RE rating [8]: 4 (30-44%)
- GAL AP rating [9]: 0
- SET VI rating [10]: 2 (6-15%)
- TRZ AW rating [11]: 2 (6-15%)
- HOR VW rating [12]: 0
- VER PE rating [13]: 6 (65-79%)
- CHE AL rating [14]: 4 (30-44%)
- ZEA MX rating [15]: 5 (45-64%)
- TRZ AW rating [16]: 3 (16-29%)
- HOR VW rating [17]: 4 (30-44%)
- ALO MY rating [18]: 4 (30-44%)
- SET VI rating [19]: 9 (100% effect)
- ABU TH rating [20]: 9 (100% effect)
- IPO HE rating [21]: 7 (80-90%)
- HEL AN rating [22]: 8 (91-99%)
- AMA RE rating [23]: 7 (80-90%)
- GAL AP rating [24]: 7 (80-90%)

SMILES: O=C(Nc1ccccc1)c1nsc(-c2cccc(C(F)(F)F)c2)n1 [Example 64]
- ALO MY rating [1]: 0
- VER PE rating [2]: 0
- CHE AL rating [3]: 0
- ZEA MX rating [4]: 0
- ABU TH rating [5]: 0
- IPO HE rating [6]: 3 (16-29%)
- HEL AN rating [7]: 0
- AMA RE rating [8]: 0
- GAL AP rating [9]: 0
- SET VI rating [10]: 2 (6-15%)
- TRZ AW rating [11]: 2 (6-15%)
- HOR VW rating [12]: 0
- VER PE rating [13]: 0
- CHE AL rating [14]: 0
- ZEA MX rating [15]: 1 (1-5%)
- TRZ AW rating [16]: 2 (6-15%)
- HOR VW rating [17]: 1 (1-5%)
- ALO MY rating [18]: 2 (6-15%)
- SET VI rating [19]: 4 (30-44%)
- ABU TH rating [20]: 1 (1-5%)
- IPO HE rating [21]: 0
- HEL AN rating [22]: 0
- AMA RE rating [23]: 0
- GAL AP rating [24]: 0
